Structures can show the parent of a compound that is named as a salt.
Each molecule was assayed against AaDOP2 (Aedes aegypti, UniProt H6D5H2) (assay: AaDOP2 antagonist screen of the LOPAC1280 library (HEK-CRELuc-Aadop2 cells, luminescence)). Conditions: not given.
Type: cell-based

Chain of AaDOP2 (H6D5H2 1-476): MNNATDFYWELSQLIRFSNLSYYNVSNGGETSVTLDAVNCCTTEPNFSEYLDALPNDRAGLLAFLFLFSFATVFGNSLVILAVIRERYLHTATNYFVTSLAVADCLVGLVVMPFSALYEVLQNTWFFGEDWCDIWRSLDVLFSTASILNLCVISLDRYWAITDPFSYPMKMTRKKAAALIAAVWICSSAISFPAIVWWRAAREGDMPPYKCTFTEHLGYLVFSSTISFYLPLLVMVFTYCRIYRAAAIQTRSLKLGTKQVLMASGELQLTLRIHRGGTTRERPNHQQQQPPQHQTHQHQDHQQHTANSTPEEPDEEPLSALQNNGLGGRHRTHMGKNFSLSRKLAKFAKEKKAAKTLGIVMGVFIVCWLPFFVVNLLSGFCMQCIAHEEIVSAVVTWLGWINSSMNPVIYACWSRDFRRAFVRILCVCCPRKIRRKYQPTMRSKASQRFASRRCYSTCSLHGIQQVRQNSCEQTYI

| Compound | Compound effect (percent receptor signaling in presence of test compound, relative lux units relative to the SCH23390 control) |
| --- | --- |
| NC(=NCc1ccccc1)NC(=O)c1nc(Cl)c(N)nc1N [Compound 166, Benzamil hydrochloride] | 60 |
| CCCCS(=N)(=O)CC[C@H](N)C(=O)O (stereo partly drawn) [Compound 167, L-Buthionine-sulfoximine] | 81 |
| C[N+](C)(C)CC(=O)O [Compound 170, Betaine hydrochloride] | 86 |
| C[N+](C)(C)CC=O [Compound 171, Betaine aldehyde chloride] | 99 |
| CC(/C=C/c1cccc(Oc2ccc(F)cc2)c1)N(O)C(N)=O (stereo not shown) [Compound 173, BWB70C] | 118 |
| O=c1[nH]c(=O)n([C@H]2C[C@H](O)[C@@H](CO)O2)cc1Br [Compound 174, 5-Bromo-2'-deoxyuridine] | 84 |
| CC(C)COCC(CN(Cc1ccccc1)c1ccccc1)N1CCCC1 (stereo not shown) [Compound 175, Bepridil hydrochloride] | 78 |
| CN(C)CC[C@@H](c1ccc(Br)cc1)c1ccccn1 [Compound 176, (+)-Brompheniramine maleate] | 97 |
| Oc1ccc(-c2nc(-c3ccncc3)c(-c3ccc(F)cc3)[nH]2)cc1 [Compound 178, SB 202190] | 65 |
| CC(C)(C)c1ccc(S(=O)(=O)/C=C/C#N)cc1 [Compound 179, Bay 11-7085] | 76 |
| CC(C)NCC(O)COc1ccc(CCOCC2CC2)cc1 (stereo not shown) [Compound 180, Betaxolol hydrochloride] | 95 |
| N=C(N)c1ccccc1 [Compound 181, Benzamidine hydrochloride] | 87 |
| C[C@H]1C[C@H]2[C@@H]3CCC4=CC(=O)C=C[C@]4(C)[C@@]3(F)[C@@H](O)C[C@]2(C)[C@@]1(O)C(=O)CO [Compound 182, Betamethasone] | 89 |
| O=C1CC2(CCCC2)CC(=O)N1CCCCN1CCN(c2ncccn2)CC1 [Compound 183, Buspirone hydrochloride] | 83 |
| NC(CO)C(=O)NNCc1ccc(O)c(O)c1O (stereo not shown) [Compound 184, Benserazide hydrochloride] | 94 |
| C[C@H]1CCC/C=C/[C@@H]2C[C@H](O)C[C@H]2[C@H](O)/C=C/C(=O)O1 [Compound 185, Brefeldin A from Penicillium brefeldianum] | 124 |
| CCCC1O[C@@H]2C[C@H]3[C@@H]4CCC5=CC(=O)C=C[C@]5(C)[C@H]4[C@@H](O)C[C@]3(C)[C@]2(C(=O)CO)O1 (stereo partly shown) [Compound 186, Budesonide] | 128 |
| CCCCOc1cc(CC2CNC(=O)N2)ccc1OC (stereo not shown) [Compound 189, Ro 20-1724] | 122 |
| CC(C)C[C@H](NC(=O)[C@@H](O)[C@H](N)Cc1ccccc1)C(=O)O [Compound 190, Bestatin hydrochloride] | 145 |
| CC[N+](C)(C)Cc1ccccc1Br [Compound 191, Bretylium tosylate] | 97 |
| CN1CCc2cc3c(cc2[C@H]1[C@@H]1OC(=O)c2c1ccc1c2OCO1)OCO3 [Compound 192, (+)-Bicuculline] | 94 |
| COc1ccccc1N1CCN(CCCCNC(=O)c2ccc3ccccc3c2)CC1 [Compound 193, BP 897] | 54 |
| O=c1[nH]c(=O)n([C@H]2C[C@H](O)[C@@H](CO)O2)cc1/C=C/Br [Compound 194, (E)-5-(2-Bromovinyl)-2'-deoxyuridine] | 121 |
| OC(CN1CCN(c2cccc(Cl)c2)CC1)C(c1ccccc1)c1ccccc1 (stereo not shown) [Compound 195, BRL 15572] | 84 |
| C=CCc1ccccc1OCC(O)CNC1(C)CCC(C(C)(C)NC(=O)CBr)CC1 (stereo not shown) [Compound 198, Bromoacetyl alprenolol menthane] | 87 |
| COc1cccc(OC)c1OCCNCC1CSc2ccccc2O1 (stereo not shown) [Compound 199, Benoxathian hydrochloride] | 68 |
| CC(COc1ccccc1)N(CCCl)Cc1ccccc1 (stereo not shown) [Compound 200, Phenoxybenzamine hydrochloride] | 86 |
| CC(NC(C)(C)C)C(=O)c1cccc(Cl)c1 (stereo not shown) [Compound 201, Bupropion hydrochloride] | 77 |
| C[N+](C)(C)CCOC(=O)CBr.[Br-] [Compound 204, Bromoacetylcholine bromide] | 91 |
| Cl.c1ccc2sc(C3(N4CCCCC4)CCCCC3)cc2c1 [Compound 207, BTCP hydrochloride] | 100 |

Same assay, conditions: 10 µM compound, 300 nM dopamine, 2 hr; hit = compound effect <20

| Compound | Compound effect (percent receptor signaling in presence of test compound, relative lux units relative to the SCH23390 control) [%] |
| --- | --- |
| Cl.NCC(O)c1cc(O)c(O)cc1F (stereo not shown) [Compound 197, 6-Fluoronorepinephrine hydrochloride] | 90 |
| COc1ccccc1N1CCN(CCN2C(=O)CC3(CCCC3)CC2=O)CC1.Cl.Cl [Compound 205, BMY 7378 dihydrochloride] | 102 |
| Br.C=CCN1CCc2c(cc(O)c(O)c2Br)[C@@H](c2ccccc2)C1 [Compound 206, R(+)-6-Bromo-APB hydrobromide] | 182 |
| CCNC(=O)[C@H]1O[C@@H](n2cnc3c(NCc4ccccc4)ncnc32)[C@H](O)[C@@H]1O [Compound 208, N6-Benzyl-5'-N-ethylcarboxamidoadenosine] | 108 |
| Cl.c1ccc2nc(C3=NCCN3)ccc2c1 [Compound 209, BU224 hydrochloride] | 92 |
| CCN1CCc2nc(N)oc2CC1.Cl.Cl [Compound 210, B-HT 933 dihydrochloride] | 79 |
| C[C@H](Cc1ccc(OCC(=O)[O-])cc1)NC[C@H](O)c1cccc(Cl)c1.[Na+] [Compound 212, BRL 37344 sodium] | 87 |
